Source: US20060205642A1, “Oral methods of treatment using proANF peptides” (priority 2005, published 2006)
“Also recorded” adds a separate entry of the source.

What was measured:
[1] = Infusion into human subjects with Class III NYHA congestive heart failure; assay type: in vivo, humans; details: for enhancement of sodium excretion: CHF subjects, 100 ng/kg body weight/min for 60 minutes
Experimental: Human proANF's 1-30, 31-67, 79-98, and 99-126 (i.e., ANF) were infused into human subjects with Class III New York Heart Association congestive heart failure (CHF). An identical protocol to that used in example V where these peptides were infused into healthy human subjects was utilized. (See Attachment C and F for a detailed description of this protocol). The human subjects with congestive heart failure received an identical dose (0.1 μg/kg body wt/minute for 60 minutes) that the healthy human subjects received. […] This striking urine output secondary to proANF 31-67 was significant at P<0.0001 compared to the pre-infusion output of the congestive heart failure subjects (n=6).

[2] = system: renal medullary Na+-K+-ATPase; assay: Inhibition of renal medullary Na+-K+-ATPase activity (FIG. 9); assay type: biochemical; details: for inhibition of renal medullary Na+-K+-ATPase activity: 10^-11 M, n=6, ANOVA
Source text: FIG. 9. Inhibition of renal medullary Na+-K+-ATPase activity by proANF 79-98 (kaliuretic peptide), proANF 1-30 (long acting natriuretic peptide), proANF 31-67 (vessel dilator), and angiotensin II at their […] concentrations.

[3] = system: porcine aortas; assay: Vasodilation of porcine aortic strips preconstricted with 0.3 micromolar phenylephrine
Experimental: 30 Kg pigs are sacrificed, and aortic strips are harvested. The strips are attached to F-60 transducer (Narco-BioSystems, Houston, Tex.) and attached to a physiography (Narco-BioSystems) while being submerged in a muscle tissue bath comprising a Krebs Ringer solution at 37° C., with 95% O2-5% CO2, bubbled through the bath. Percentage vasodilation is measured versus time after preconstriction with 0.3 micromolar phenylephrine. […] (Vesely et al., Biochem. Biophys. Res. Commun. 148:1540-1548, 1987).

[4] = system: particulate guanylate cyclase; assay: Cyclic GMP / particulate guanylate cyclase activation in cultured smooth muscle cells and porcine aorta; assay type: cell-based; details: for concentration of maximal activation of guanylate cyclase activity / EC50: porcine aorta and isolated smooth muscle cells; for EC50: read-out: half maximal activation (ED5o) of guanylate cyclase
[5] = Rat clearance model (diuresis and salt excretion); assay type: in vivo, Munich-Wistar rats; details: for FENa, fractional excretion of sodium / UNa, urinary sodium / UNaV, urinary sodium excretion rate / V, urine flow rate: means ± SE
Experimental: The same three peptides and ANF from Example I are tested using the rat clearance model. Six control rats and six experimental Munich-Wistar rats, each weighing 150-200 grams, are used for each peptide, with catheters being placed in both jugular veins and in the femoral artery. The ureters are cannulated for simultaneous urine collections with femoral artery blood collections.
After inserting the catheters, a stabilization of one hour is allowed. A 10 μg/kg bolus of each of the respective human sequences of the peptides is given via the jugular vein to six experimental rats followed by a sustaining infusion of 0.1 μg/kg/min for 60 minutes. Blood and urine samples are collected at 20 minute intervals during this 60 minute infusion. In both the control and experimental animals, hematocrits and plasma sodium values remained at the same levels pre- and post-infusion while blood pressure decreased with each of these peptides (see Attachment B).

[6] = system: particulate guanylate cyclase; assay: Particulate guanylate cyclase activity in the kidney; assay type: biochemical; details: 1 μM; whole kidney homogenates, renal cortical and medullary membranes, isolated distal nephrons
Experimental: Testing is also carried out to determine biologic effects of these peptides by measuring their effects on particulate guanylate activity in the kidney.

[7] = Infusion into healthy human subjects; assay type: in vivo; details: healthy humans; for potassium excretion: 100 ng/kg body wt; for increase in urine volume (in words): 100 ng/kg body wt per minute for 1 hour i.v., n=6, ANOVA; for sodium excretion (in words): 100 ng/kg body wt per minute for 60 minutes, vs baseline; for systolic and diastolic blood pressures: 100 ng/kg body wt per minute i.v. for 60 min, n=6
Experimental: Infusion of these peptides into healthy human subjects was performed as follows: Human pro-ANF 1-30, pro-ANF 31-67, and pro-ANF 79-98, and hANF (i.e., pro-ANF 99-126, were synthesized by Peninsula Laboratories (Belmont, Calif.). High pressure liquid chromatography (HPLC) analysis was performed on a sample of each of the four peptides to ensure purity. The peptides were dissolved in a sterile 0.9% saline solution to a concentration of 100 μg/ml and dispensed in 2 and 5 ml aliquots into sealed sterile vials. At the time of dispensing, randomly selected vials were tested for pyrogens and sterility. Prior to labeling the vials, the actual peptide content of the dispensed solution were determined by direct radioimmunoassay to account for any possible absorption of the respective peptides to the walls of the vials. All vials were then stored at −80° C. until thawed for individual study.
Normal healthy subjects were chosen on the basis of age (between 20 and 50 years), physical examination and biochemical screenings. The subjects consumed their normal diets prior to testing. The subjects fasted overnight and were tested in the morning in the seated position. Intravenous catheters were placed bilaterally for the administration of pro-hANF 1-30, pro-hANF 31-67, pro-hANF 79-98 and hANF (pro-hANF 99-126) and for blood sampling. After completion of a 45-minute equilibration period, there were three […] phases of the study: baseline, experimental infusion (60 minutes) and recovery (3 hours). The baseline phase consisted of two 30 minute urine collection periods, the experimental phase consisted of three 20 minute urine and plasma collection periods, and the recovery phase consisted of two 30 minute urine and plasma collection periods each hour for three hours post-infusion. Urine output was replaced on a milliliter per milliliter basis throughout the study by administering oral water or orange juice. Urine samples were obtained by voiding at the designated collection periods.
The 36 subjects were divided into 6 groups. One group (i.e., the control group) received a placebo infusion of 0.9% sodium chloride during the experimental infusion phase. […] The four remaining groups of six subjects each received human pro-hANF 1-30, pro-hANF 31-67, pro-hANF 79-98 and HANF. The four groups received the peptides by continuous infusion at the rate of 0.1 μg/kg per minute. The volume administered per hour during the experimental infusion phase was 10 ml for all four peptides and the placebo. All infusions were given by a constant-rate infusion pump, with the final concentrations of prohANFs adjusted for the subjects' body weight. The subjects heart rate and cuff blood pressure were taken at 5 minute intervals throughout the study. The excreted urine was analyzed for sodium concentration.

[8] = system: prostaglandin E2 (PGE2) synthesis; assay: Prostaglandin E2 synthesis (FIG. 8); assay type: biochemical; details: n=6, ANOVA and Duncan's MRT
[9] = molecular target: particulate guanylate cyclase of porcine aorta and cultured smooth muscle cells (porcine)
[10] = A, control period (before peptide)
[11] = B, first 60-minute experiment period, 10 μg/kg bolus then 0.1 μg/kg/min via jugular vein
[12] = B, first 60-minute experiment period, 10 μg/kg bolus then 0.1 μg/kg/min
[13] = C, second 60-minute experimental period, 10 μg/kg bolus then 0.1 μg/kg/min
[14] = C, second 60-minute experimental period

## CC[C@H](C)[C@@H]1NC(=O)[C@H](CCCNC(=N)N)NC(=O)[C@H](CC(=O)O)NC(=O)[C@H](CCSC)NC(=O)[C@H](CCCNC(=N)N)NC(=O)CNC(=O)CNC(=O)[C@H](Cc2ccccc2)NC(=O)[C@@H](NC(=O)[C@H](CO)NC(=O)[C@H](CO)NC(=O)[C@H](CCCNC(=N)N)NC(=O)[C@H](CCCNC(=N)N)NC(=O)[C@H](CC(C)C)NC(=O)[C@@H](N)CO)CSSC[C@@H](C(=O)N[C@@H](CC(N)=O)C(=O)N[C@@H](CO)C(=O)N[C@@H](Cc2ccccc2)C(=O)N[C@@H](CCCNC(=N)N)C(=O)N[C@@H](Cc2ccc(O)cc2)C(=O)O)NC(=O)CNC(=O)[C@H](CC(C)C)NC(=O)CNC(=O)[C@H](CO)NC(=O)[C@H](CCC(N)=O)NC(=O)[C@H](C)NC(=O)CNC1=O [ANF, reference compound]
[1]; human, in vivo
  hypotension: became hypotensive

## COc1ccc2cc([C@H](C)C(=O)O)ccc2c1 [Naproxen, reference compound]
[2]; 0.5 mM
  blockade of the peptides' effects on renal medullary Na+-K+-ATPase: completely blocked

## H-NPMYNAVSNADLMDFKNLLDHLEEKMPLED-OH [proANF 1-30]
[3]
  increase in cyclic GMP levels over baseline levels associated with vasodilation: four-to-five fold
[4]
  cyclic GMP levels in cultured smooth muscle cells: increase cyclic GMP levels
  concentration of maximal activation of guanylate cyclase activity: about 1 μM
  EC50: ~10 nM
[5]; [10]
  FENa, fractional excretion of sodium: 0.023 ± 0.002%
  UNa, urinary sodium: 34.13 ± 10.98 meq/1
  UNaV, urinary sodium excretion rate: 36.37 ± 8.09 μeq · min^−1 · g kidney wt^−1
  V, urine flow rate: 1.83 ± 0.27 μl · min^−1 · g kidney wt^−1
[5]; [11]
  V, urine flow rate: 3.41 ± 0.48 μl · min^−1 · g kidney wt^−1
[5]; [12]
  FENa, fractional excretion of sodium: 0.241 ± 0.101%
  UNa, urinary sodium: 64.83 ± 12.93 meq/1
  UNaV, urinary sodium excretion rate: 224.30 ± 60.34 μeq · min^−1 · g kidney wt^−1
[5]; [13]
  V, urine flow rate: 4.31 ± 0.84 μl · min^−1 · g kidney wt^−1
[5]; [14]
  FENa, fractional excretion of sodium: 0.285 ± 0.094%
  UNa, urinary sodium: 89.50 ± 19.82 meq/1
  UNaV, urinary sodium excretion rate: 384.98 ± 124.39 μeq · min^−1 · g kidney wt^−1
[6]
  particulate guanylate cyclase activity: enhance
[7]
  duration of sodium excreting effects compared to ANF: significantly (P<0.001) prolonged compared to ANF
  potassium excretion: significant (P<0.05)
  increase in urine volume (in words): significant
  sodium excretion (in words): significantly (P<0.05) increased
  systolic and diastolic blood pressures: significant
[7]; listed as ProANF 1-30
  duration of sodium excreting effects compared to ANF: last significantly (P<0.001) longer than ANF's effects
[1]; CHF individuals
  increase of fractional excretion of sodium: 3 fold
[1]
  enhancement of sodium excretion: three-to-eight fold
[1]; human, in vivo
  hypotension: None became hypotensive
[1]; humans with congestive heart failure, listed as Pro ANF's 1-30
  time after stopping infusion for which diuresis / urine flow is still significantly elevated (P<0.01): ≥ 3 h
[8]
  prostaglandin E2 (PGE2) synthesis: increase prostaglandin E2 (PGE2) synthesis
[2]
  inhibition of renal medullary Na+-K+-ATPase activity: significant at P<0.01

## H-SSDRSALLKSKLRALLTAPR-OH [proANF 79-98]
[3]
  increase in cyclic GMP levels over baseline levels associated with vasodilation: four-to-five fold
[4]
  cyclic GMP levels in cultured smooth muscle cells: increase cyclic GMP levels
  concentration of maximal activation of guanylate cyclase activity: about 1 μM
  EC50: ~10 nM
[5]; [10]
  FENa, fractional excretion of sodium: 0.030 ± 0.024%
  UNa, urinary sodium: 42.27 ± 24.68 meq/1
  UNaV, urinary sodium excretion rate: 90.88 ± 77.76 μeq · min^−1 · g kidney wt^−1
  V, urine flow rate: 2.62 ± 0.70 μl · min^−1 · g kidney wt^−1
[5]; [11]
  V, urine flow rate: 4.75 ± 1.57 μl · min^−1 · g kidney wt^−1
[5]; [12]
  FENa, fractional excretion of sodium: 0.200 ± 0.152%
  UNa, urinary sodium: 63.30 ± 22.11 meq/1
  UNaV, urinary sodium excretion rate: 363.98 ± 261.85 μeq · min^−1 · g kidney wt^−1
[5]; [13]
  V, urine flow rate: 5.16 ± 1.04 μl · min^−1 · g kidney wt^−1
[5]; [14]
  FENa, fractional excretion of sodium: 0.368 ± 0.273%
  UNa, urinary sodium: 92.53 ± 29.17 meq/1
  UNaV, urinary sodium excretion rate: 564.22 ± 315.48 μeq · min^−1 · g kidney wt^−1
[5]; rat clearance model
  potassium excretion: very significant stimulator of potassium excretion
  sodium excretion (in words): does not significantly increase sodium excretion
[6]
  particulate guanylate cyclase activity: enhance
[7]
  potassium excretion: significant (P<0.05)
  increase in urine volume (in words): significant
  systolic and diastolic blood pressures: significant
[7]; listed as ProANF 79-98
  sodium excretion (in words): does not have natriuretic effects in healthy humans
  potassium excretion: strongest stimulator of potassium excretion of any of the atrial peptides; also recorded: significant (P<0.01) enhancer of potassium excretion
[7]; infusion
  increase in urine flow: 2 fold
[1]; CHF patients
  hypotension: None became hypotensive
[1]
  enhancement of sodium excretion: 3 fold
[1]; NYHA class III CHF, 100 ng/kg body weight/min i.v. for 60 minutes, P<0.001
  increase of urine flow (maximal): 4 fold
[1]; diuretic and natriuretic effects
  effects in persons with CHF compared to healthy individuals: not blunted in persons with CHF but rather are increased compared to healthy individuals
[8]
  prostaglandin E2 (PGE2) synthesis: increase prostaglandin E2 (PGE2) synthesis
[2]
  inhibition of renal medullary Na+-K+-ATPase activity: significant at P<0.01

## angiotensin II [reference compound]
[2]
  inhibition of renal medullary Na+-K+-ATPase activity: significant at P<0.01

## human atrial natriuretic factor (ANF) (peptide)
[9]
  half maximal activation (ED50) of guanylate cyclase activity: 10 nM

B1: human pro-ANF 1-30 (peptide)
peptide: H-NPMYNAVSNADLMDFKNLLDHLEEKMPLED-OH
[9]
  half maximal activation (ED50) of guanylate cyclase activity: 10 nM

B2: human pro-ANF 31-67 (peptide)
peptide: H-EVVPPQVLSEPNEEAGAALSPLPEVPPWTGEVSPAQR-OH
[9]
  half maximal activation (ED50) of guanylate cyclase activity: 10 nM

B3: human pro-ANF 79-98 (peptide)
peptide: H-SSDRSALLKSKLRALLTAPR-OH
[9]
  half maximal activation (ED50) of guanylate cyclase activity: 10 nM
